According to article PMC7249060, “The Antiproliferative Effects of Flavonoid MAO Inhibitors on Prostate Cancer Cells” (Molecules, 2020):
pKi: −log10 of the molar value.

Experiments:
PC3 cells = experiment: Antiproliferation screen assay, resazurin, 72 h; type: cell-based, human; settings: 50 μM
DU145 cells = experiment: Scratch migration assay; type: cell-based, human; settings: preliminary data
Description: For in-vitro migration experiments, the PCa metastatic DU145 cell line was used. Cell proliferation and cytotoxicity were monitored for assay validation. The cells (passage # ≤ 10) were grown in fresh media of EMEM 10% FBS, 1% P/S. The cells were seeded in flat-bottom transparent 96-well microplates (100,000 cells/100 μL/well) in EMEM 5% FBS, 1% P/S experimental media. The next day, the confluent cells monolayer was artificially injured by scratching a line across each well, using a 200 μL tip. Immediately, the old media with the detached cells were replaced with 175 μL fresh warm experimental media. Intact cells were then treated with 25 μL of HBSS buffer 7.4 containing tested KKR. In addition to the negative control, KKR11 was tested at gradual concentrations to make finals of 40, 30, 23, 17, and 13 μM. The cells were then incubated for an additional 72 h for gap closure of the control wells.
At the gap closure time point, all cells were subjected to the crystal violet assay that only stains viable cells. Briefly, all media were carefully aspired from cells that were then washed with Ca- and Mg-free PBS. The cells were then fixed with 100 μL 0.25% v/v glutaraldehyde, at 37 °C for 20–30 min incubation time, and dried overnight. The next day, all viable attached cells were stained with a 100 μL crystal violet solution (0.1% in DI-water) for up to 30 min. The solution was then discarded, and the stained cells were kept dry for imaging. Images of the scratched areas were photographed using 10X phase contrast objective lenses of Motic-MXH-100-AE31E-Elite Inverted Microscope.

LNCaP cells = experiment: Viability screen assay, resazurin, 24 h; type: cell-based, human; settings: 50 μM, 90% viability as margin of cytotoxicity
Description: We examined the cytotoxic effects of all 20 synthesized KKRs on the three human PCa cell lines LNCaP, DU145, and PC3, after a 24 h exposure period. Non-toxic TAX was used for comparison. Briefly, cultured cells were seeded in black transparent bottom 96-well microplates at 50,000 cells/175-µL/well in experimental media (RPMI1640 for LNCaP, EMEM for DU145, and DMEM/F12K for PC3), supplied with 5% FBS and 1% P/S. Wells of media without cells were considered blanks and negative controls. The plates were incubated overnight at 37 °C in 5% CO2 to allow cell attachment. For each compound, a working solution of 8X KKR in sterile […] HEPES in HBSS pH buffer of 7.4 was prepared for a final concentration of 50 μM each. The three attached cell types were treated immediately with the related buffer being added to the control wells. A sterile fluorescence-based solution of the resazurin reagent of 0.5 mg/mL in HBSS was prepared. After 24 h, the cells were exposed to 15% v/v of the sterile resazurin reagent, and the plates were re-incubated for 4.5 h to allow redox reaction. All plates were read under 530/590-nm excitation/emission wavelengths using Bio-Tek Synergy HTX Multi-reader as a microplate fluorescence reader.

hMAO-A = biological target: T1, hMAO-A (Homo sapiens, UniProt P21397); experiment: Michaelis–Menten kinetics / mode of inhibition (MAO-Glow, LDS substrate); type: biochemical; settings: for Alpha parameter (mixed model of enzyme inhibition): GraphPad Prism mixed model; for mode of hMAO-A inhibition: Lineweaver–Burk, alpha analysis; for Vmax of hMAO-A with increasing inhibitor (minimum and maximum average means): inhibitor 0 to IC50 × 4
T1 construct: purchased Sigma-Aldrich Co. (St. Louis, MO, USA)
T1 sequence (P21397 1-527): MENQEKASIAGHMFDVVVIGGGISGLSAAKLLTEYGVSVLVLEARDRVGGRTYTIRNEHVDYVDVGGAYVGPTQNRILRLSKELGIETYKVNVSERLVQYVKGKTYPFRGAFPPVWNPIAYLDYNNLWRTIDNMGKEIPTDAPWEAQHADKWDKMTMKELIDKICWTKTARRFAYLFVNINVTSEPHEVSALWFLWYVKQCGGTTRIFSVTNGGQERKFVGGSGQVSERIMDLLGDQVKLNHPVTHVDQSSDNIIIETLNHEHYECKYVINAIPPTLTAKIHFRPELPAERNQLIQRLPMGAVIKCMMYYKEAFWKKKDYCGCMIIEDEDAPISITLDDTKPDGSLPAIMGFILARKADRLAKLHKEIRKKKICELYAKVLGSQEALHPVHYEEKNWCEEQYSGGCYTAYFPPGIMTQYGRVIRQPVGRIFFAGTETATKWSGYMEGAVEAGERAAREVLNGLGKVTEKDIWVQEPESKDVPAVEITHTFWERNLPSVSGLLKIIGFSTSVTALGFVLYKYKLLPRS
Description: The hMAO-A modes of inhibition by KKR21 and KKR11 were investigated using the Michaelis–Menten reaction kinetics and MAO-Glow™ assay. A negative control buffer and seven serially diluted LDS concentrations were prepared from a maximum final of 75 μM. Other negative control buffers and three different concentrations of each KKR were prepared to resemble IC50/4, IC50, and IC50 × 4 final concentrations (final KKR11 of 0.08, 0.31, and 1.24 μM, and final KKR21 of 0.005, 0.019, and 0.076 μM, respectively). Each KKR was mixed with the isozyme in a 2:1 ratio volume for a final concentration of 0.44 U/mL. The reactions were initiated by adding 37.5 μL of the prepared mixture to 12.5 μL LDS substrate in the 96-well plates. Opaque plates were incubated at 37 °C for 60 min. The enzymatic reaction was terminated by adding 50 μL RLDR to the plates and then was re-incubated for 30 min at RT. The generated ALU was read on the Bio-Tek Synergy HTX Multi-Reader.
The Vmax and Km were calculated from the averaged X and Y intercepts of Lineweaver–Burk (LWB) linear regressions that were analyzed from the Michaelis–Menten curve data. Vmax = 1/Y-intercept, Km = −1/X-intercept(2)
Inhibitor-constant (Ki) was calculated from Cheng–Prosuff’s equation Ki (comp) = IC50/(1+[S]/Km)(3)

[1] = competitive model, Ki = IC50/(1 + [S]/Km)

pKi (hMAO-A; Cheng–Prosuff's equation) | Alpha parameter (mixed model of enzyme inhibition) (hMAO-A) | mode of hMAO-A inhibition (hMAO-A) | pKi (hMAO-A; [1]) | Vmax of hMAO-A with increasing inhibitor (minimum and maximum average means) (hMAO-A) | Structure (SMILES) | antiproliferative effect in screen (PC3 cells) | effect on cell migration (DU145 cells) | cytotoxicity / cell viability (LNCaP cells)
– | – | – | – | – | COc1cc(OC)c2c(=O)c(O)c(/C=C/c3cc(OC)c(OC)c(OC)c3)oc2c1 [KKR2A, (E)-3-hydroxy-5,7-dimethoxy-2-(3,4,5-trimethoxystyryl)-4H-chromen-4-one] | no effects on any of the screened PCa cell models | – | –
– | – | – | – | – | O=c1c(O)c(-c2ccccc2)oc2c(Cl)cc(Cl)cc12 [KKR7, 6,8-dichloro-3-hydroxy-2-phenyl-4H-chromen-4-one] | – | no significant effects against cell migration | affected the LNCaP cells
≥ 8.13 | >>1 | reversible competitive inhibition | 8.13 | 3 × 10^−6–4 × 10^−6 U/mL/h | COc1cc(O)c(C(=O)/C=C/c2ccc(Cl)c(Cl)c2)c(OC)c1 [KKR11, (E)-3-(3,4-dichlorophenyl)-1-(2-hydroxy-4,6-dimethoxyphenyl)prop-2-en-1-one] | – | delayed cell migration | –
– | – | – | – | – | O=C(/C=C/c1ccccc1)c1cc(Cl)cc(Cl)c1O [KKR20, (E)-1-(3,5-dichloro-2-hydroxyphenyl)-3-phenylprop-2-en-1-one] | – | no significant effects against cell migration | –
≥ 8.13 | >>1 | reversible competitive inhibition | 8.77 | 1.38 × 10^−6–1.43 × 10^−6 U/mL/h | O=c1cc(-c2ccccc2)oc2cc(Cl)c(Cl)cc12 [KKR21, 6,7-dichloro-2-phenyl-4H-chromen-4-one] | no effects on any of the screened PCa cell models | – | –
